# Reference: patent US20050131209A1, “Crystallized hnf4 gamma ligand binding domain polypeptide and screening methods employing same” (priority 2001, published 2005)
# “Also recorded” adds a separate entry of the source.
# Assays:
# HNF4γ LBD = molecular target: T1, HNF4γ LBD (Homo sapiens, UniProt Q14541); assay: GC/MS identification of fatty acids bound to purified HNF4γ LBD (extract); type: binding; conditions: lipid extract of purified HNF4γ LBD, methyl esters, CI and EI
# T1 construct: HNF4γ amino acids 102-408; made in house; host or cells: E. coli BL21 (DE3), vector pRSETa
# T1 sequence (Q14541 102-408): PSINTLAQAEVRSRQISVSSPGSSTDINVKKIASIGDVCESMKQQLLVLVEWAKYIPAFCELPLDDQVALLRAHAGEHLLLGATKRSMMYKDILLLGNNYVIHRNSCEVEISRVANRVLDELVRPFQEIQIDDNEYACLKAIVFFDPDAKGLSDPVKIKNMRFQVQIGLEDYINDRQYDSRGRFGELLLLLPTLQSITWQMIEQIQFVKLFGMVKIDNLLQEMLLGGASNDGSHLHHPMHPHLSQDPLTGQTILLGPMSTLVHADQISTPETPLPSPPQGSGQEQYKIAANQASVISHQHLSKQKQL
# Procedure: The description of the bound ligand from the structural data led to the belief that the compound was a fatty acid. Analytical methods were used to obtain a definitive identification of the ligand. First, bound ligand(s) was separated from a purified preparation of HNF4γ LBD by liquid-liquid extraction (Folch et al., (1957) J. Biol. Chem. 226: 497-509). The extract was then treated with 3% (v/v) acetyl chloride in methanol. This reagent converts fatty acids to their corresponding fatty acid methyl esters (FAME). The derivatized sample was then analyzed by gas chromatography/mass spectrometry (GC/MS) using both electron impact ionization (EI) and chemical ionization (CI) in separate analyses. The constituents of the extract were identified by comparing the GC/MS data for the extract with data for standard fatty acids, acquired likewise.
# The CI mass spectra for peaks a through g all show a protonated molecular ion ([M+H]^+) along with a fragment ion at a mass-to-charge (m/z) value 32 Da below the protonated molecular ion. […]
# The second column lists the protonated molecular ion detected of each labeled peak in FIG. 4. […]
# Lipids were extracted from an aliquot of HNF4γ LBD with chloroform/methanol 2:1 (v/v). […] The derivatized sample was then analyzed by GC/MS on a Shimadzu GC-17A QP-5050A instrument. […]
# HNF4α = molecular target: T2, HNF4α (Homo sapiens, UniProt P41235); assay: GC/MS analyses of receptor extracts, HNF4α; type: binding
# T2 sequence (P41235 1-474): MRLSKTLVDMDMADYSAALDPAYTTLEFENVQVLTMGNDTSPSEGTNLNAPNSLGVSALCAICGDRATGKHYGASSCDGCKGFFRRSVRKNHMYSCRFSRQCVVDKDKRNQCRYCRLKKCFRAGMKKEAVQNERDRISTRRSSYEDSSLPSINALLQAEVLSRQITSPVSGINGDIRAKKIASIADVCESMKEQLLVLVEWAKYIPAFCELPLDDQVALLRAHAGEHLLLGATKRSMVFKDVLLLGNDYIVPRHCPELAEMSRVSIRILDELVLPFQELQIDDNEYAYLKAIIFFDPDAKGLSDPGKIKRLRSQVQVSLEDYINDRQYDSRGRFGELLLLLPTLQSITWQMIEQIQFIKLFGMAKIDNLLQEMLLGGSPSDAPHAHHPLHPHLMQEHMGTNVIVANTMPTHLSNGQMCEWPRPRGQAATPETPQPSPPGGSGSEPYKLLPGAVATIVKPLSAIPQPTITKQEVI
# Source text: Palmitic acid forms hydrogen bonds with the side chain of arginine 186, and with the backbone nitrogen of glycine 197 (not shown). Alanine 215 corresponds to serine 256 in HNF4α. Because serine can form hydrogen bonds to the ligand, the specificity is different for the two receptor subtypes. […] Valine 214 corresponds to valine 255 in HNF4α, and is one of the mutations associated with MODY, Type 1.
# [1] = molecular target: T3, HNF4α LBD / CBP (CREB-binding protein) (Homo sapiens, UniProt P41235); assay: FRET assay of CBP recruitment to HNF4α LBD; type: biochemical; conditions: cell-free FRET; for Kd: dose dependent, read-out: apparent binding constant (increase of CBP-HNF4 interaction); for effect on CBP recruitment / association between HNF4 and CBP: ligands incubated 15 minutes at 21° C.
# T3 construct: HNF4α amino acids 141465 and HNF4γ amino acids 102-408; biotin (chemical biotinylation); made in house; host or cells: E. coli
# T3 sequence (P41235 150-474 limits assumed): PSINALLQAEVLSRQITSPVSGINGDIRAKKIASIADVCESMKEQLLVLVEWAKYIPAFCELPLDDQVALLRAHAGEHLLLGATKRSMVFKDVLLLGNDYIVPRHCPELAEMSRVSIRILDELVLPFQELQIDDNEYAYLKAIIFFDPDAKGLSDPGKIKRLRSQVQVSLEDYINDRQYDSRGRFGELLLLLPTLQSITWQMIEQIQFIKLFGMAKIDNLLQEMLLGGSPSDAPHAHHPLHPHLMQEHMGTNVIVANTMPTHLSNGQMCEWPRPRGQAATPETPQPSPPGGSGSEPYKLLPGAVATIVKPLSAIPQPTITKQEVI
# Procedure: (§1) To confirm that fatty acids were functional HNF4 ligands, HNF4α and HNF4γ were tested for their ability to recruit the nuclear receptor co-activator CREB binding protein, a known activation partner (Wang et al., (1998) J. Biol. Chem. 273: 30847-50; Dell & Hadzopoulou-Cladaras, (1999) J. Biol. Chem. 274: 9013-21). A FRET (fluorescent resonance energy transfer) assay was employed using purified recombinant CREB-binding protein (CBP) and HNF4 LBD (Zhou et al., (1998) Mol. Endocrinol. 12: 1594-1604). Long-chain fatty acids (LCFA) with increasing carbon lengths from 12 to 18 carbon methylene units were tested for their ability to modulate the association between HNF4 and CBP in a dose dependent manner. […] Palmitic and stearic acids increased the allosteric interaction between CBP and HNF4, with apparent binding constants of 1 μM.
# (§2) The reported ligands for HNF4α are fatty acyl-CoA thioesters (Hertz et al., (1998) Nature (London) 392: 512-16), which are much larger than other nuclear receptor ligands (Bogan et al., (1998) Nat. Struct. Biol. 5: 679-81). […] Shorter fatty acyl-CoAs had no effect on CBP association.
# (§3) A cell-free fluorescent resonance energy transfer (FRET) assay was used to measure the association between the amino portion of CBP (CREB-binding protein) (residues 54-457) and the HNF4 LBD (HNF4α amino acids 141465 and HNF4γ amino acids 102-408) (Zhou et al., (1998) Mol. Endocrinol 12: 1594-1604). Proteins were expressed in E. coli, purified to homogeneity, and biotinylated. CBP, the fluorescence donor, was labeled with a europium chelate, and HNF4 LBD was labeled with the streptavidin-conjugated fluorophore allophycocyanin (Molecular Probes, Eugene, Oreg.). Labeled HNF4 LBD and CBP were incubated together with ligands for 15 minutes at 21° C. before assaying. A small basal level was observed, as depicted in FIG. 3.
# [2] = molecular target: T4, HNF4γ LBD / CBP (CREB-binding protein) (Homo sapiens, UniProt Q14541); assay: FRET assay of CBP recruitment to HNF4γ LBD; type: biochemical; conditions: cell-free FRET; for Kd: dose dependent, read-out: apparent binding constant (increase of CBP-HNF4 interaction); for effect on CBP recruitment / association between HNF4 and CBP: ligands incubated 15 minutes at 21° C.
# T4 construct: HNF4γ amino acids 102-408; biotin (chemical biotinylation); made in house; host or cells: E. coli
# T4 sequence (Q14541 102-408): T1 sequence (Q14541 102-408)
# Procedure: as §1, §2, §3
fatty acid found in HNF4γ extract by GC/MS (HNF4γ LBD),binding to HNF4α by GC/MS of receptor extracts (HNF4α),Kd [1] [µM],Kd [2] [µM],Structure (SMILES),effect on CBP recruitment / association between HNF4 and CBP [1],effect on CBP recruitment / association between HNF4 and CBP [2]
most abundant component,binds,1,1,CCCCCCCCCCCCCCCC(=O)O [palmitic acid],functional activators; also recorded: increased,functional activators; also recorded: increased
–,–,–,–,CCCCCCCCCCCCCCCC(=O)SCCNC(=O)CCNC(=O)[C@H](O)C(C)(C)COP(=O)(O)OP(=O)(O)OC[C@H]1O[C@@H](n2cnc3c(N)ncnc32)[C@H](O)[C@@H]1OP(=O)(O)O [palmitoyl-CoA],decreased the basal level,decreased the basal level
–,binds,1,1,CCCCCCCCCCCCCCCCCC(=O)O [stearic acid],functional activators; also recorded: increased,functional activators; also recorded: increased
–,–,–,–,CCCCCCCCCCCCCCCCCC(=O)SCCNC(=O)CCNC(=O)[C@H](O)C(C)(C)COP(=O)(O)OP(=O)(O)OC[C@H]1O[C@@H](n2cnc3c(N)ncnc32)[C@H](O)[C@@H]1OP(=O)(O)O [steroyl-CoA],decreased the basal level,decreased the basal level
